± gives the standard deviation of the averaged measurements.
Tests used:
FLUOROURACIL = compound: O=c1[nH]cc(F)c(=O)[nH]1 [FLUOROURACIL]; assay: surviving fraction relative to DMSO-only wells; higher = less growth inhibition; conditions: exposure time: 5 days
Outline: (§1)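 Inhibitors were tested at 0.5, 1, 5, 10, 50, 100, 500 and 1000 nM, applied continuously for five days beginning 24 hours after log-phase tumour cells were seeded at 250–500 per well in 384-well plates. CellTiter-Glo luminescence served as the viability measure, expressed as surviving fraction against the median of DMSO-only wells. Each line, screened three times, was kept only with replicate Pearson r >0.7 and median Z' >0.3.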

ABT-737 = compound: CN(C)CC[C@H](CSc1ccccc1)Nc1ccc(S(=O)(=O)NC(=O)c2ccc(N3CCN(Cc4ccccc4-c4ccc(Cl)cc4)CC3)cc2)cc1[N+](=O)[O-] [ABT-737]; assay: as above; conditions: exposure time: 5 days
Outline: as §1

Test System | surviving fraction (FLUOROURACIL; 0.5 nM) | surviving fraction (FLUOROURACIL; 1 nM) | surviving fraction (FLUOROURACIL; 5 nM) | surviving fraction (FLUOROURACIL; 10 nM) | surviving fraction (FLUOROURACIL; 50 nM) | surviving fraction (FLUOROURACIL; 100 nM) | surviving fraction (FLUOROURACIL; 500 nM) | surviving fraction (FLUOROURACIL; 1000 nM) | surviving fraction (ABT-737; 0.5 nM) | surviving fraction (ABT-737; 1 nM) | surviving fraction (ABT-737; 5 nM) | surviving fraction (ABT-737; 10 nM) | surviving fraction (ABT-737; 50 nM) | surviving fraction (ABT-737; 100 nM) | surviving fraction (ABT-737; 500 nM) | surviving fraction (ABT-737; 1000 nM)
SG27 HEADNECK | 1.07 ± 0.029 | 1.08 ± 0.13 | 0.991 ± 0.016 | 1.08 ± 0.053 | 1.08 ± 0.087 | 1 ± 0.13 | 1.137 ± 0.0093 | 1.01 ± 0.043 | 1.26 ± 0.26 | 1.12 ± 0.12 | 1.19 ± 0.029 | 1.16 ± 0.079 | 1.15 ± 0.11 | 1.08 ± 0.13 | 0.88 ± 0.11 | 0.797 ± 0.059
SG28 HEADNECK | 1.04 ± 0.056 | 1.08 ± 0.056 | 0.944 ± 0.078 | 1.06 ± 0.036 | 0.756 ± 0.013 | 0.756 ± 0.12 | 0.781 ± 0.059 | 0.693 ± 0.068 | 1.25 ± 0.068 | 1.17 ± 0.064 | 1.02 ± 0.07 | 1.081 ± 0.0014 | 1.036 ± 0.0064 | 1.09 ± 0.021 | 1.13 ± 0.14 | 1.04 ± 0.016
SG31 HEADNECK | 1.09 ± 0.14 | 1.25 ± 0.32 | 1.05 ± 0.085 | 0.973 ± 0.11 | 0.893 ± 0.048 | 0.981 ± 0.16 | 0.903 ± 0.059 | 0.876 ± 0.054 | 1.2 ± 0.19 | 1.51 ± 0.051 | 1.08 ± 0.21 | 1.04 ± 0.025 | 1.03 ± 0.18 | 1.2 ± 0.27 | 1.27 ± 0.25 | 1.12 ± 0.11
SG32 HEADNECK | 1.28 ± 0.12 | 0.974 ± 0.046 | 1.21 ± 0.34 | 0.932 ± 0.029 | 0.864 ± 0.056 | 0.716 ± 0.098 | 0.8 ± 0.095 | 0.442 ± 0.096 | 1.02 ± 0.13 | 0.981 ± 0.024 | 1.04 ± 0.11 | 1.17 ± 0.15 | 0.963 ± 0.025 | 1.23 ± 0.51 | 1.07 ± 0.0099 | 0.954 ± 0.045
SG43 HEADNECK | 1.07 ± 0.14 | 0.991 ± 0.21 | 0.979 ± 0.25 | 1.06 ± 0.3 | 1.1 ± 0.22 | 0.905 ± 0.073 | 0.977 ± 0.088 | 0.879 ± 0.054 | 0.947 ± 0.12 | 1.06 ± 0.25 | 0.889 ± 0.076 | 0.875 ± 0.057 | 0.769 ± 0.14 | 0.801 ± 0.069 | 0.656 ± 0.24 | 0.752 ± 0.34
SIHA CERVIX | 1.01 ± 0.043 | 0.989 ± 0.052 | 1.06 ± 0.011 | 1.08 ± 0.066 | 0.999 ± 0.051 | 0.957 ± 0.073 | 0.915 ± 0.13 | 1.02 ± 0.097 | 1.02 ± 0.017 | 1.1 ± 0.052 | 1.12 ± 0.033 | 1.08 ± 0.14 | 1.14 ± 0.056 | 1.2 ± 0.087 | 1.19 ± 0.056 | 1.14 ± 0.043
SJSA1 BONE | 1.19 ± 0.1 | 1.6 ± 0.092 | 1.59 ± 0.11 | 1.52 ± 0.2 | 0.135 ± 0.008 | 0.823 ± 0.018 | 1.44 ± 0.026 | 0.116 ± 0.001 | 1.59 ± 0.063 | 1.68 ± 0.045 | 1.63 ± 0.06 | 1.72 ± 0.049 | 1.66 ± 0.078 | 1.81 ± 0.12 | 1.74 ± 0.045 | 1.81 ± 0.14
SKBR3 BREAST | 0.988 ± 0.088 | 0.894 ± 0.085 | 1.03 ± 0.074 | 0.986 ± 0.015 | 0.792 ± 0.059 | 0.741 ± 0.11 | 0.901 ± 0.11 | 0.787 ± 0.018 | 1.04 ± 0.035 | 1.03 ± 0.07 | 0.988 ± 0.13 | 1.19 ± 0.13 | 0.976 ± 0.071 | 1.15 ± 0.09 | 1.01 ± 0.14 | 1.13 ± 0.13
SNU475 LIVER | 1 ± 0.058 | 0.982 ± 0.018 | 0.99 ± 0.046 | 0.9607 ± 0.0047 | 0.886 ± 0.021 | 0.892 ± 0.025 | 0.826 ± 0.081 | 0.741 ± 0.066 | 1.07 ± 0.017 | 1 ± 0.018 | 1.08 ± 0.083 | 1.05 ± 0.064 | 1.02 ± 0.039 | 1 ± 0.12 | 1.01 ± 0.061 | 0.972 ± 0.047
SUM44 BREAST | 1.03 ± 0.23 | 0.958 ± 0.17 | 1.02 ± 0.16 | 0.956 ± 0.12 | 1.05 ± 0.12 | 0.788 ± 0.041 | 0.982 ± 0.05 | 0.726 ± 0.07 | 1.28 ± 0.43 | 1.31 ± 0.53 | 1.32 ± 0.44 | 1.3 ± 0.53 | 1.28 ± 0.48 | 1.25 ± 0.48 | 1.2 ± 0.42 | 1.1 ± 0.34
SUM149 BREAST | 0.934 ± 0.029 | 0.969 ± 0.064 | 0.908 ± 0.028 | 0.909 ± 0.038 | 0.872 ± 0.071 | 0.902 ± 0.063 | 0.736 ± 0.069 | 0.597 ± 0.057 | 1.02 ± 0.036 | 1.07 ± 0.023 | 1.1 ± 0.061 | 1.08 ± 0.051 | 0.952 ± 0.058 | 1.07 ± 0.075 | 0.97 ± 0.049 | 0.961 ± 0.056
SUM149.B1*.S BREAST | 1.1 ± 0.044 | 1.06 ± 0.043 | 1.12 ± 0.028 | 1.04 ± 0.04 | 1.04 ± 0.064 | 0.962 ± 0.034 | 0.909 ± 0.03 | 0.812 ± 0.021 | 1.13 ± 0.027 | 1.1 ± 0.072 | 1.16 ± 0.021 | 1.12 ± 0.034 | 1.12 ± 0.057 | 1.11 ± 0.069 | 1.1 ± 0.024 | 1.16 ± 0.055
SUM159 BREAST | 1.1 ± 0.024 | 1.07 ± 0.023 | 1.08 ± 0.027 | 1.06 ± 0.026 | 1.073 ± 0.0051 | 1.01 ± 0.012 | 1.03 ± 0.014 | 0.915 ± 0.01 | 1.1 ± 0.018 | 1.1 ± 0.028 | 1.12 ± 0.027 | 1.09 ± 0.026 | 1.095 ± 0.006 | 1.09 ± 0.021 | 1.11 ± 0.018 | 1.08 ± 0.014
SYO1 SYNOVIAL | 1.02 ± 0.012 | 0.989 ± 0.01 | 0.962 ± 0.029 | 0.974 ± 0.024 | 0.894 ± 0.016 | 0.872 ± 0.034 | 0.763 ± 0.034 | 0.616 ± 0.025 | 1.03 ± 0.048 | 1.039 ± 0.01 | 1.03 ± 0.07 | 1.025 ± 0.0082 | 1.04 ± 0.08 | 0.984 ± 0.048 | 0.752 ± 0.03 | 0.504 ± 0.024
T47D BREAST | 1.02 ± 0.03 | 1.03 ± 0.03 | 1 ± 0.0033 | 1.01 ± 0.03 | 1.02 ± 0.041 | 0.95 ± 0.04 | 0.855 ± 0.02 | 0.761 ± 0.028 | 1.13 ± 0.026 | 1.08 ± 0.031 | 1.08 ± 0.08 | 1.08 ± 0.025 | 1.03 ± 0.2 | 1.089 ± 0.0036 | 1.11 ± 0.11 | 1.05 ± 0.035
U2OS BONE | 1.02 ± 0.021 | 1.04 ± 0.025 | 1.083 ± 0.0072 | 1.05 ± 0.05 | 1.01 ± 0.011 | 0.966 ± 0.083 | 0.843 ± 0.051 | 0.674 ± 0.043 | 1.04 ± 0.048 | 1.04 ± 0.026 | 1.06 ± 0.055 | 1.04 ± 0.012 | 1.08 ± 0.035 | 1.11 ± 0.024 | 1.06 ± 0.029 | 1.02 ± 0.038
VCAP PROSTATE | 1.03 ± 0.11 | 1.06 ± 0.026 | 1.09 ± 0.044 | 1.22 ± 0.097 | 1.05 ± 0.077 | 0.998 ± 0.22 | 0.916 ± 0.17 | 0.939 ± 0.049 | 1.03 ± 0.065 | 0.971 ± 0.075 | 1.14 ± 0.15 | 1.04 ± 0.047 | 1.17 ± 0.078 | 1.13 ± 0.19 | 1.01 ± 0.1 | 0.94 ± 0.047
VP229 BREAST | 1.08 ± 0.036 | 0.988 ± 0.05 | 1.1 ± 0.13 | 0.92 ± 0.16 | 0.905 ± 0.068 | 0.827 ± 0.062 | 0.773 ± 0.095 | 0.654 ± 0.18 | 1.1 ± 0.09 | 1.12 ± 0.06 | 1.18 ± 0.11 | 1.12 ± 0.049 | 1.22 ± 0.11 | 1.17 ± 0.11 | 1.17 ± 0.017 | 1.13 ± 0.063
YAMATO SYNOVIAL | 1.2 ± 0.08 | 1.15 ± 0.056 | 1.3 ± 0.021 |  | 0.921 ± 0.061 | 0.829 ± 0.046 | 0.791 ± 0.053 | 0.654 ± 0.028 | 1.27 ± 0.17 | 1.32 ± 0.11 | 1.35 ± 0.16 | 1.34 ± 0.043 | 1.33 ± 0.19 | 1.38 ± 0.029 | 1.27 ± 0.026 | 1.27 ± 0.14
ZR751 BREAST | 1.21 ± 0.13 | 1.26 ± 0.11 | 0.966 ± 0.051 | 1.12 ± 0.18 | 1.04 ± 0.12 | 1.1 ± 0.16 | 0.974 ± 0.072 | 0.81 ± 0.083 | 1.08 ± 0.16 | 1.1 ± 0.096 | 1.14 ± 0.17 | 1.02 ± 0.052 | 1.07 ± 0.071 | 1.03 ± 0.076 | 1.07 ± 0.095 | 1.03 ± 0.15

— the supplement of paper PMC6045584
